Reference: US20200009068A1, “NANOPARTICLE FORMULATIONS FOR ENHANCED DRUG DELIVERY TO THE BLADDER” (The Johns Hopkins University, priority 2017, published 2020)

Tests used:
RT4 cells = assay: In vitro cytotoxicity assay (CellTiter-Glo cell viability); format: cell-based, human; conditions: 72 hr, triplicate
Experimental: In vitro cytotoxicity of CDDP, oxaliplatin, PAA-CDDP NPs, PEGlow-PAA-CDDP NPs and PEGhigh-PAA-CDDP NPs was evaluated using a superficial bladder cancer cell line (RT4) in triplicate. RT4 cells were purchased from the American Type Culture Collection (ATCC, Manassas, Va.) and cultured in McCoy's 5A (Thermo Fisher Scientific, Waltham, Mass.) at 37° C. under 5% CO2. Cells were seeded in 96-well tissue-treated culture plates at a density of 5×10^3 cells in 100 μl of complete medium and cultured overnight. Then, the supernatant was removed, and a known concentration of CDDP, oxaliplatin, or CDDP NPs (100 μl) was added into the wells. After 72 hr, cell viability was measured using CellTiter-Glo Luminescent Cell Viability Assay Kit (Promega, Madison, Wis.) according to manufacturer's protocol. Acquired data was analyzed to depict sigmoidal dose-response curve with Graph Pad Prism 5 (Graph Pad Software Inc., San Diego, Calif.) using the equation log(inhibitor) vs. response-variable slope.

[1] = Bladder uptake and retention in rats (CDDP content by AAS); format: in vivo; conditions: intravesical
Experimental: Female Fischer 344 rats (age 7 weeks) were purchased from Harlan (Indianapolis, Ind.) and acclimated in the animal facility for 1 week. Before starting the experiment, rats were randomly divided into different groups (n≥5). Rats were anesthetized with an isoflurane vaporizer and nose cone system and catheterized using a 20G angiocatheter sheath. After catheterization, the bladder was voided using aspiration and/or gentle pressure on the abdomen. Then, 300 μl of CDDP solution, PAA-CDDP NPs, PEGlow-PAA-CDDP NPs, or PEGhigh-PAA-CDDP NPs (CDDP content 0.7 mg/ml) was instilled by intravesical administration. Rats were maintained under anesthesia for 1 h and then allowed to wake up. Plasma and bladder tissues were obtained at 1 and 4 h for analysis of CDDP content. Bladder tissues were dipped in PBS and gently squeezed with forceps to remove any residual fluid.
(§1) 200 μl of plasma or bladder were transferred to a clean borosilicate glass cell culture tube, and 1 ml of 22% nitric acid was added. All samples were heated to 90° C. to digest plasma proteins or bladder tissues and to extract platinum. The solution was heated until a dry yellow film was obtained. Then, 1 ml of 2.2% nitric acid added to dissolve the dried residue containing platinum. CDDP content in the solution was analyzed by AAS. The lowest limit of quantification for CDDP was 250 ng/ml (<1% of the administered dose).

[2] = tested on: N-methyl-N-nitrosourea (MNU) induced rat bladder carcinogenesis model; assay: Immunohistochemical staining of bladder sections; format: in vivo; conditions: CDDP study, week 15
Experimental: Fischer 344 female rats (age 7 weeks) were anesthetized with an isoflurane vaporizer and nose cone system. After complete anesthesia and preparation of the surgical area, a 20G angiocatheter (BD) was placed into the rat's urethra and the bladder was emptied of urine. MNU (1.5 mg/kg MNU dissolved in 0.30 ml of 0.9% saline, pH 6.0) was then instilled into the bladder under 45 min of continued sedation to prevent spontaneous micturition and allow absorption. In order to explore the potential for treatment to prevent recurrence, treatment was initiated from weeks 8-14. Treatment groups (n=5 per group) included CDDP and PAA-CDDP NPs dosed weekly. All formulations were delivered at a concentration of 0.7 mg/ml in 300 μl. Rats were sacrificed at week 15 for histopathologic analysis of bladder tissue. Bladders were formalin fixed, paraffin embedded, sectioned, and stained with hematoxylin-eosin for classification according to the World Health Organization/International Society of Urological Pathology consensus. Tumor staging was performed in a blinded fashion by a board certified genitourinary pathologist.
For immunohistochemical staining, high-temperature antigen retrieval (18-23 psi/126° C.) was performed by immersing the slides in Trilogy (Cell Marque, Hot Springs, Ark.). Endogenous peroxidase activity was blocked for 5 min in using Dual Endogenous Enzyme Block (Dako S2003). Primary Antibody used included KI 67 (Abcam;ab16667). Slides were stained with Impact DAB (Vector Labs, Burlingame, Calif., USA) for 3 min and counterstained with haematoxylin (Richard-Allen, Kalamazoo, Mich., USA). For each section, Ki67+, cells were counted in 10 random 400× fields.
In a MNU-induced rat bladder carcinogenesis model as described in Example 3, Fischer Rat received weekly intravesical administration of Taxotere, DTX NS, or saline, for six weeks.

[3] = systemic CDDP therapy; cited from earlier work
[4] = CDDP levels in mouse bladder after intravesical administration; format: in vivo; conditions: mice
Experimental: Female CF-1 mice (age 8 weeks) were purchased from Harlan (Indianapolis, Ind.) and acclimated in the animal facility for 4 weeks. Mice were randomly divided into different groups (n≥5). Mice were anesthetized with an isoflurane vaporizer and nose cone system and catheterized using polyethylene tubing mounted on a 30G needle. After catheterization, the bladder was emptied of urine by aspiration and/or gentle pressure on the abdomen. Then, 100 μl of CDDP solution, PAA-CDDP NPs, PEGlow-PAA-CDDP NPs or PEGhigh-PAA-CDDP NPs at 0.7 mg/ml CDDP content was instilled into the bladder by intravesical administration. Mice were maintained under anesthesia for 1 h and then allowed to wake up. To assess systemic exposure, mice were euthanized at 1, 4, and 24 h and plasma was obtained for analysis of CDDP content. To assess local toxicity of CDDP solution and CDDP NPs, mice received a total of three intravesical doses spaced one week apart. Bladder tissues were obtained 24 h after the third dose, photographed, and weighed.
as §1, with “The solution was heated until a dry yellow film was obtained. Then, 1 ml of 2.2% nitric acid added to dissolve the dried residue containing platinum.” left out

[5] = 50 patients, intravesical CDDP for more than 4 months; cited from earlier work
[6] = tested on: N-methyl-N-nitrosourea (MNU) induced rat bladder carcinogenesis model; assay: In vivo efficacy, tumor staging by histopathology; conditions: weekly intravesical dosing weeks 8-14, 0.7 mg/ml in 300 μl, sacrifice week 15
Description: The N-methyl-N-nitrosourea (MNU) rat model of bladder cancer was chosen because it recapitulates human non-muscle invasive bladder cancer, with carcinoma in situ (CIS), non-invasive papillary carcinoma (Ta), and high grade invasive papillary carcinoma (T1) histologies, and progresses from dysplasia to NMIBC to MIBC (Steinberg G D, et al., Cancer Res, 50(20):6668-74 (1990)). This animal model progresses from dysplasia to NMIBC between about week 8 and about week […], making it a desirable time to initiate treatment and a good recapitulation of a chemopreventative treatment model. Additionally, the MNU model represents an outbred strain of NMIBC, as opposed to an inbred strain utilizing immortal clones of genetically identical tumor strains. […] Since no reliable xenograft model was believed to be present of NMIBC that progresses to MIBC in a temporal time-dependent fashion similar to human urothelial cancer, a carcinogen model was chosen to recapitulate the heterogeneity of human disease, study the antineoplastic and immunologic effects of treatment, and reflect the typical progression of non-muscle to muscle invasive cancer. In this model, the presence of NMIBC progresses from about week 8 to about week 15, at which point all rats have NMIBC.
Fischer 344 female rats (age 7 weeks) were anesthetized with an isoflurane vaporizer and nose cone system. […]

| SMILES | RT4 cells-IC50 (RT4 cells) | CDDP levels in rat bladder at 4 h [1] | Ki67+ staining compared to untreated controls [2] | number of CD3+ cells compared to untreated controls [2] | number of CD8+ cells compared to untreated controls [2] | number of Foxp3+ cells compared to untreated controls [2] | cases with hypersensitivity reactions [3] | CDDP levels in mouse bladder at 1 h ([4]; 1 h under anesthesia) | CDDP levels in mouse bladder at 4 h ([4]; 4 h (3 h ambulatory time)) | patients who stopped treatment early due to chemical cystitis [5] [%] | patients with anaphylactic reaction due to systemic drug absorption resulting in hypotensive shock [5] [%] | rats with T1 high grade tumors in the bladder [6] [%] |
| --- | --- | --- | --- | --- | --- | --- | --- | --- | --- | --- | --- | --- |
| N.N.O=C([O-])C1(C(=O)[O-])CCC1.[Pt+2] [Carboplatin] | 17.18 ± 0.056 μg/ml of Pt |  |  |  |  |  |  |  |  |  |  |  |
| N.N.[Cl][Pt][Cl] [Cisplatin, cis-diamminedichloridoplatinum (II)] | 1.39 ± 0.03 μg/ml of Pt | below the level of detection | decreased Ki67+ staining, though statistically indistinguishable from the untreated control group | without differences | significantly lower numbers | without differences | 5-20% | similar | below the limit of quantitation | 6 | 14 | 20 |
